Reference: paper PMC8238948, “Potent inhibitors of toxic alpha-synuclein identified via cellular time-resolved FRET biosensors” (NPJ Parkinson's Disease, 2021)
Counter-ions that a name gives are not always drawn.

Experiments:
[1] = molecular target: T1, labeled αSN (monomeric) (Homo sapiens, UniProt P37840, E130C/T54C); assay: smFRET measurements of αSN monomer conformation; settings: αSN labeled at 54-130C; +20μM compound; mean ± standard deviation
T1 construct: made in house; host or cells: Escherichia coli BL21(DE3)
Method: (§1) SmFRET experiments were performed using two different labeled αSN constructs (residues 9–72 and residues 54–130) that report on intra-monomeric FRET (e.g., monomer conformation) of the N-terminal and C-terminal domains of αSN. […] We were not able to evaluate RO with smFRET, due to interactions of RO with the AlexaFluor-594 label.
(§2) Single-molecule FRET measurements were carried out using ~30 pM of labeled αSN in 20 mM Tris pH 7.4 and 50 mM NaCl in 8-chambered Nunc coverslips (ThermoFisher) passivated with poly(ethylene glycol) poly(L-lysine) to reduce protein adsorption to the chambers. Measurements were made on a MicroTime 200 time-resolved confocal microscope (Picoquant) as described previously. Laser power was adjusted to ~30 μW before sample illumination. Fluorescence emission was collected through the objective and passed through a 150-μm diameter pinhole. Photons were separated by an HQ585LP dichroic in combination with ET525/50M and HQ600LP filters and detected by avalanche photodiodes. Photon traces were collected in 1-ms time bins for 1 h. A cutoff of 25 counts/ms was applied to discriminate between bursts arising from fluorescently labeled protein and background noise. The FRET efficiency (Eeff) was calculated using the SymphoTime 64 software. SmFRET histograms were fit with Gaussian distributions to determine the peak Eeff values. Each measurement was carried out three times and mean Eeff values are the average and SD of these measurements (Supplementary Table 2). Alignment of instrument and analysis were verified using smFRET reference standards consisting of 10, 14, and 18 base pair dsDNA labeled with Alexa 488 and Alex 594 with their 5’ and 3’ ends.

[2] = molecular target: T2, labeled αSN (monomeric) (Homo sapiens, UniProt P37840, S9C/T72C); assay: smFRET measurements of αSN monomer conformation; settings: αSN labeled at 9C-72C; +20μM compound; mean ± standard deviation
T2 construct: made in house; host or cells: Escherichia coli BL21(DE3)
Method: as §1, §2

[3] = test system: inter-protomeric and intra-protomeric αSN FRET biosensors in HEK293 cells; assay: Pilot HTS of the LOPAC library, fluorescence lifetime (FLT) of cellular αSN FRET biosensors; format: cell-based, human; settings: 10 µM compound, 90 min; hit = FLT change >5 SD
Method: Prior to each pilot HTS, FLT and emission spectrum were measured to verify signal level, basal FRET, coefficient of variance (CV), and similarity index. For each HTS, cells were dispensed into compound plates—1536-well (10 µL/well)—and incubated with the compounds (10 µM) or dimethyl sulfoxide (DMSO; 1%) for 90 min. FLT measurements were acquired with the FLT-PR. After deconvolving the instrument response function, a single exponential fit was used to determine the FLT for both the αSN cellular FRET biosensor (τDA) and the donor-only control biosensor (τD). FRET efficiency was determined by Eq. 1. CV was determined from control plates (N = 384 wells).
Fluorescent compounds (FC) were flagged using a spectral similarity index filter, which evaluates the ratio of intensity from two bandwidths that span the donor emission spectrum and are excluded as potential false positives[45],[46],[49],[51],[66]. […] Compounds that changed FLT by >5 standard deviations (SD) were considered hits (Fig. 5, red data points).
On each day of screening, the compound plates were equilibrated to room temperature (RT; 25 °C). The cells were harvested from the 100-mm plates by incubating with TrypLE (Invitrogen) for 2 min, washed three times in PBS by centrifugation at 200 × g, and filtered using 70-μm cell strainers (BD Falcon). Cell viability prior to screen was assessed using a trypan blue assay and confirmed to be >80%. Cells were diluted to 1.5E6 cells/mL. Expression of GFP-αSN and the αSN biosensors were confirmed by fluorescence microscopy prior to each screen (EvosFL-Auto microscope, Thermo Fisher Scientific, USA). During screening, cells (50 μL/well for 384-well; 10 μL/well for 1536-well) were dispensed by a Multidrop Combi liquid dispenser (Thermo, Pittsburg, PA, USA) into the assay plates containing the compounds and allowed to incubate at RT for 90 min before recording with the FLT-PR or SUPR (both instruments manufactured by Fluorescence Innovations Inc., both owned and provided by Photonic Pharma LLC), as described previously[46].
Interfering compounds were flagged as potential false positives by a set of stringent FC filters based on spectral analysis of each well from the LOPAC screen[45],[46]. After removal of FCs, a histogram of the FLT distribution from all compounds in the screen was plotted and fit to a Gaussian curve to obtain the mean (µ) and SD (σ). A hit was defined as a compound that attenuated the FLT efficiency by >5σ relative to the mean µ (Supplementary Fig. 12).

[4] = test system: SH-SY5Y cells transfected with unlabeled WT αSN; assay: αSN expression levels in SH-SY5Y cells (immunoblot); format: cell-based, human; settings: 1 μM compound; relative to DMSO
Method: We investigated one potential MOA for compounds RO and DEM in our SH-SY5Y cytotoxicity model. These compounds might rescue αSN-induced cytotoxicity by modulating αSN expression[81],[82]. SH-SY5Y cells transfected with empty-vector or unlabeled WT αSN were treated with DMSO, RO, or DEM at 1 μM concentration. […] This effect may be due to prolonged survival of cells expressing higher levels of αSN, which would be lost in DMSO-treated samples or as a result of shifting monomer:oligomer ratios. Studies have shown that there is a fine balance in αSN expression, where too much can lead to aggregation, but αSN expression can also be neuroprotective[81],[83]–[86].
Supplemental Figure 15. Rescue of αSN-induced cytotoxicity in SH-SY5Y cells is not driven by suppression of αSN expression. One potential MOA for our hit compounds could be reduction of αSN levels, thereby alleviating the αSN induced cytotoxicity. (a) Treatment of SH-SY5Y cells expressing either αSN or […]
DMSO for both RO and DEM. (b) Quantification of a via densitometry analysis.
(1 picture or pasted object on this page, not shown here)

Row | Eeff (smFRET efficiency) [1] | Eeff (smFRET efficiency) [2] | SMILES | identified as hit in the LOPAC screen [3] | total αSN expression levels [4]
1 | 0.58 ± 0.005 | 0.54 ± 0.013 | COC(=O)C1=C(C)NC(C)=C([N+](=O)[O-])C1c1ccccc1C(F)(F)F (racemic) [BAY, (±)-Bay K 8644] | – | –
2 | 0.60 ± 0.008 | 0.55 ± 0.005 | CN(C)[C@@H]1C(O)=C(C(N)=O)C(=O)[C@@]2(O)C(O)=C3C(=O)c4c(O)ccc(Cl)c4[C@@H](O)[C@H]3C[C@@H]12 [DEM, Demeclocycline HCl] | identified | no change
3 | – | – | Nc1ccc(-c2nc3ccc(-c4nc5ccc(N)cc5[nH]4)cc3[nH]2)cc1 [RO, Ro 90–7501] | – | no change
